Measured values reported in patent EP4663632A1, “COMPOUNDS USEFUL FOR THE MODULATION OF THE ACTIVITY OF STING” (Sulis Therapeutics ApS, priority 2024, dated 2025).

What was measured:
[1] = target: T1, C-terminal domain (CTD) of human STING (Homo sapiens, UniProt Q86WV6); test: STING binding FP assay I; set-up: recombinant human STING protein (155-379); conditions: 35 nM STING, 4 nM Probe 1
Description: (§1) The interaction between molecules and the C-terminal domain (CTD) of human STING was evaluated using a competition binding assay. In this assay, recombinant human STING protein (155-379) and a STING binding fluorescent probe were employed. Upon binding of the probe to STING, the rotation of the fluorescent probe is slowed due to the larger molecular size of the protein-bound complex. As a result, emitted light retains its plane of polarization, leading to an increase in fluorescence polarization. Molecules competing for the probe binding site displace the probe, which leads to rapid randomization of the polarization plane of the emitted light and a subsequent decrease in measured fluorescence polarization signal. Change in polarization was measured, allowing a comparative evaluation of the binding affinities of different compounds to the target protein.
(§2) The assay was performed in 96-well plates (ThermoFisher, cat.# 237108) containing 100µl : 10 µL test compound in 10% DMSO and buffer A (150 mM NaCl, 50 mM HEPES pH 7.5, 1 mM DTT) + 90 µL prepared master mix solution of: 4 nM fluorescein-labelled STING ligand (Probe 1; synthesis described above) in buffer A + 0.055% Tween-20 (v/v) and 35 nM STING in buffer A. Post mixing, plates were agitated at 600rpm and incubated for 20 min at room temperature. Subsequent measurements of the fluorescence polarization signal were made on a BioTek Synergy-H1 plate reader, using a polarization filter; Exc: 485/20 nm, Em: […]) with a gain-setting of 75. IC50 values were determined using a standard non-linear regression four-parameter curve fit in Graphpad Prism.

STING [2] = target: T2, STING (Homo sapiens, UniProt Q86WV6); test: Western Blot analysis for S1 STING ligand antagonism in primary human skin fibroblasts; type: cell-based; set-up: host or cells: HFF-1 human foreskin fibroblasts; conditions: 5 µM; 2 h or 1 h before, simultaneously with, or 15 minutes after 0.3 µM diABZI
Description: To assess whether S1 STING ligands inhibit STING activation, primary human skin fibroblasts (Figure 5) or HFF-1 cells (Figure 6) were treated with various compounds which comprise only an S1 ligand domain and a Linker domain before undergoing Western Blot analysis as described below. Compounds A9, A11, A26 and A30 used in the following experiments share a common S1 ligand, which is also shared by Example compounds 1, 3, 5-29, 33-38.
Cells were incubated with A9 or A11 for 1 or 2 hours before addition of diABZI c3, treated with test compound and diABZI c3 simultaneously, or treated with A9 or A11 after 15 minutes incubation with diABZI c3. As a control, cells were also treated with diABZI c3 alone.

STING [3] = target: T2, STING; test: Inhibition of STING-agonist-induced IFN-β and CXCL10 release by Compounds A9 and A11; type: cell-based; set-up: host or cells: HFF-1 human foreskin fibroblasts; conditions: 1 to 2 hours prior to, simultaneously with, or 15 minutes after diABZI c3
Description: HFF-1 cells were also assessed for inhibition of STING-agonist-induced IFN-β and CXCL10 release in cells treated with Compounds A9 and A11. […] In contrast, pre-treating cells for 1 to 2 hours prior to diABZI c3, simultaneous treatment with A9 and diABZI c3, or pre-treating cells for 15 minutes with diABZI c3 followed by A9 treatment led to a decrease in the IFN media concentration to ~100 U/mL. […] In contrast, cells pre-treated for 1 to 2 hours prior to diABZI c3, simultaneous treatment with A9 and diABZI c3, or pre-treating cells for 15 minutes with diABZI c3 followed by A9 treatment led to a decrease in the CXCL10 media concentration to […] (Figure 9B, unfiled bars).
In contrast, pre-treating cells for 1 to 2 hours prior to diABZI c3, simultaneous treatment with A11 and diABZI c3, or pre-treating cells for 15 minutes with diABZI c3 followed by A11 treatment led to a decrease in the IFN media concentration to -10 - 20 U/mL. […] In contrast, cells pre-treated for 1 to 2 hours prior to diABZI c3, simultaneous treatment with A11 and diABZI c3, or pre-treating cells for 15 minutes with diABZI c3 followed by A11 treatment led to a decrease in the CXCL10 media concentration to -10 - 20 pg/mL (Figure 9B; filled bars).

[4] = target: T1, C-terminal domain (CTD) of human STING; test: STING binding FP assay II; set-up: recombinant human STING protein (155-379); conditions: 7 nM STING
Description: as §1, §2
The procedure for STING binding FP assay II is the same as described for STING binding FP assay I, except for a lower STING concentration. In STING binding FP assay II, a concentration of 7 nM STING in buffer A was used.

T2 sequence (Q86WV6 whole entry, the tested form may be a part): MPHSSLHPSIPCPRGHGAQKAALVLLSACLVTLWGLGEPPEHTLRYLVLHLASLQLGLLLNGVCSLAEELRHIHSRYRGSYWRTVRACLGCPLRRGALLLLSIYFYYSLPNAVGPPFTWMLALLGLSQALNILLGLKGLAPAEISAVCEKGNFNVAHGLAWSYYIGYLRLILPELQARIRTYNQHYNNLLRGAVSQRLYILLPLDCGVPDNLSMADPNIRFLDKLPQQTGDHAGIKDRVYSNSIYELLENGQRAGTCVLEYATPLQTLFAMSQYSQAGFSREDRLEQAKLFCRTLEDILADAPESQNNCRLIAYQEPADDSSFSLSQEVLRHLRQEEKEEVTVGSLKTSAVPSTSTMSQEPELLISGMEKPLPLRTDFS
T1 sequence (Q86WV6 155-379): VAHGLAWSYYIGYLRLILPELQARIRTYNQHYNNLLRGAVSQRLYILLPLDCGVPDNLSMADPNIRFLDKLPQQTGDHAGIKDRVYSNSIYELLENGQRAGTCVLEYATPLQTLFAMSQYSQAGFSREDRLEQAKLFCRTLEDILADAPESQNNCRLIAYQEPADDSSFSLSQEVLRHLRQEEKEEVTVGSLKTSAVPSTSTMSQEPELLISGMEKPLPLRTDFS

SMILES	IC50 [1] [nM]	IC50 [4] [nM]	other results
CCn1nc(C)cc1C(=O)N=c1n(C)c2cc(C(N)=O)ccc2n1CCC(CCn1c(=NC(=O)c2cc(C)nn2CC)n(C)c2cc(C(N)=O)ccc21)OCC(=O)N1CCc2cc(OC)ccc2C1 (stereo not drawn) [Example A9, 1-(5-{5-Carbamoyl-2-[(1-ethyl-3-methyl-5-pyrazolyl)carbonylimino]-3-methyl-2,3-dihydro-1H-1,3-benzimidazol-1-yl}-3-[2-(6-methoxy-1,2,3,4-tetrahydro-2-isoquinolyl)-2-oxoethoxy]pentyl)-2-[(1-ethyl-3-methyl-5-pyrazolyl)carbonylimino]-3-methyl-2,3-dihydro-1H-1,3-benzimidazole-5-carboxamide]	–	–	LC3B lipidation (STING [2]): reduced LC3B lipidation; P-STING intensity (activation of STING) (STING [2]): reduced intensity of P-STING; P-TBK1 intensity (STING [2]): reduced P-TBK1 intensity; IFN media concentration (STING [3]; 5 µM): ~ 100 U/mL; CXCL10 media concentration (STING [3]; A9 5 µM): ~ 30 U/mL
CCn1nc(C)cc1C(=O)N=c1n(C)c2cc(C(N)=O)ccc2n1CCC(CCn1c(=NC(=O)c2cc(C)nn2CC)n(C)c2cc(C(N)=O)ccc21)OCC(=O)NCCOCCOCCOCCOCC(=O)N[C@H](C(=O)N1C[C@H](O)C[C@H]1C(=O)NCc1ccc(-c2scnc2C)cc1)C(C)(C)C (stereo partly drawn) [Example 5]	< 30	2.4	–
CCn1nc(C)cc1C(=O)N=c1n(C)c2cc(C(N)=O)ccc2n1CCC(CCn1c(=NC(=O)c2cc(C)nn2CC)n(C)c2cc(C(N)=O)ccc21)OCC(=O)NCCOCCOCCOCCNc1cccc2c1C(=O)N(C1CCC(=O)NC1=O)C2=O (stereo not drawn) [Example 1, 1-[3-({N-2-[2-(2-{2-[2-(2,6-Dioxo-3-piperidyl)-1,3-dioxo-4-isoindolinylamino]ethoxy}ethoxy)ethoxy]ethylcarbamoyl}methoxy)-5-{5-carbamoyl-2-[(1-ethyl-3-methyl-5-pyrazolyl)carbonylimino]-3-methyl-2,3-dihydro-1H-1,3-benzimidazol-1-yl}pentyl]-2-[(1-ethyl-3-methyl-5-pyrazolyl)carbonylimino]-3-methyl-2,3-dihydro-1H-1 ,3-benzimidazole-5-carboxamide]	< 30	–	–

Further lines, with some results ahead:

IC50 [1] [nM]	IC50 [4] [nM]	SMILES	other results
< 30	–	CCn1nc(C)cc1C(=O)N=c1n(C)c2cc(C(N)=O)ccc2n1CCC(CCn1c(=NC(=O)c2cc(C)nn2CC)n(C)c2cc(C(N)=O)ccc21)OCC(=O)O (stereo not drawn) [Building Block G-4, (3-{5-Carbamoyl-2-[(1-ethyl-3-methyl-5-pyrazolyl)carbonylimino]-3-methyl-2,3-dihydro-1H-1,3-benzimidazol-1-yl}-1-(2-{5-carbamoyl-2-[(1-ethyl-3-methyl-5-pyrazolyl)carbonylimino]-3-methyl-2,3-dihydro-1H-1 ,3-benzimidazol-1-yl}ethyl)propoxy)acetic acid]	–
< 30	–	CCn1nc(C)cc1C(=O)N=c1n(C)c2cc(C(N)=O)ccc2n1CCC(CCn1c(=NC(=O)c2cc(C)nn2CC)n(C)c2cc(C(N)=O)ccc21)OCC(=O)NCCOCCOCCOCC(=O)N[C@H](C(=O)N1C[C@H](O)C[C@H]1C(=O)NCc1ccc(-c2scnc2C)cc1)C(C)(C)C (stereo partly drawn) [Example 28]	–
< 30	1.8	CCn1nc(C)cc1C(=O)N=c1n(C)c2cc(C(N)=O)ccc2n1CCC(CCn1c(=NC(=O)c2cc(C)nn2CC)n(C)c2cc(C(N)=O)ccc21)OCC(=O)NCCOCCOCCOCCOCCNc1cccc2c1C(=O)N(C1CCC(=O)NC1=O)C2=O (stereo not drawn) [Example 29, 1-{3-[(N-2-{2-[2-(2-{2-[2-(2,6-Dioxo-3-piperidyl)-1,3-dioxo-4-isoindolinylamino]ethoxy}ethoxy)ethoxy]ethoxy}ethylcarbamoyl)methoxy]-5-{5-carbamoyl-2-[(1-ethyl-3-methyl-5-pyrazolyl)carbonylimino]-3-methyl-2,3-dihydro-1H-1 ,3-benzimidazol-1-yl}pentyl}-2-[(1-ethyl-3-methyl-5-pyrazolyl)carbonylimino]-3-methyl-2,3-dihydro-1H-1,3-benzimidazole-5-carboxamide]	–
